{
  "source": "patent US20140350119A1",
  "about": "“OPHTHALMIC COMPOSITION COMPRISING GERANYLGERANYLACETONE” (ROHTO PHARMACEUTICAL CO., LTD., priority 2012, published 2014)",
  "key": {"[1]": {"tested_on": "PC12", "assay": "Protective effect against ischemic cell death induced by hypoxia and low glucose (cell viability, Cell Titer-Glo)", "type": "cell-based, rat", "conditions": "30 μM, 2 h, then low glucose, zero percent O2, 8 h, FIG. 1, Tukey-Kramer test", "excerpt": "The progress of visual impairment in glaucoma is associated with retinal ganglion cell (RGC) death due to blood flow failure occurring near the optic nerve (Folia Pharmacol. Jpn. 128, 255-258 (2006)). With the use of PC12, which is a typical neural cell line established from rat adrenal […] pheochromocytoma and used also as a model cell for the functional evaluation of RGC (J Neurosci Res. 2000 May 15; 60(4): 495-503.), the cytoprotective effect of GGA against ischemic cell death induced by hypoxia and low glucose was evaluated.\nTest samples were prepared as follows. The test substances were four types of GGAs that contain the all-trans form and the 5Z-mono-cis form at a weight ratio of 10:0, 8:2, 6:4, and 0:10, respectively. […]\n(§1) After 8 hours of incubation, 100 μL of an equivalent mixture of a cell viability detection reagent Cell Titer-Glo (Promega) and PBS was added to each well and the luminescence produced by the reaction with ATP in living cells was measured with a luminometer (GloMax; Promega). The cell viability was calculated from the measured luminescence by the following formula and the cytoprotective effect of GGA against […] was examined.\n(§2) Cell viability (%)=100×[(luminescence of base- or GGA-treated group)/(luminescence of non-treated group)]"}, "[2]": {"tested_on": "ARPE-19", "assay": "Protective effect for retinal pigment epithelial cells against oxidative stress by hydrogen peroxide", "type": "cell-based, human", "conditions": "all-trans form content 280 μM, 14 hours, then 750 μM hydrogen peroxide 2 hours, FIG. 4, n=3", "excerpt": "The involvement of oxidative stress in ophthalmologic diseases has been widely reported. Such involvement has been observed in, in addition to glaucoma and cataract, retinal diseases such as retinal diseases due to diabetes, hypertension, hyperlipemia, etc., age-related macular degeneration, retinopathy of prematurity, retinal vascular occlusion, retinal light damage, etc. (Nippon Ganka Gakkai Zasshi. 112, 22-29 (2008)). In the retina, the retinal pigment epithelium exists in an environment in which reactive oxygen easily generates (Invest Opthalmol Vis Sci. 2006 July 47(7): 3164-3177.). […]\nas §1, with “2” for “8”, “incubation, the cell culture supernatant was removed, and 200 μL of PBS was added to each well and promptly removed. Then,” for “incubation,”\nas §2"}},
  "data": [
    {"smiles": "CC(=O)CC/C=C(\\C)CC/C=C(\\C)CC/C=C(\\C)CCC=C(C)C", "note": "[all-trans form, (5E,9E,13E)-6,10,14,18-tetramethyl-5,9,13,17-nonadecatetrae n-2-one]", "values": [
      {"measurement": "Cytoprotective effect compared with GGA of weight ratio 6:4", "setting": "[1]", "value": "significantly higher cytoprotective effects"},
      {"measurement": "Cell viability compared with base-treated group", "setting": "[2]", "value": "significantly higher cell viabilities"}
    ]}
  ]
}
